Laboratory results: patent publication US20120269830A1, “CONJUGATES WITH IMPROVED PHARMACOKINETIC PROPERTIES” (priority 2009, published 2012)

Columns and labels:
db/db mice = assay: Reduction of fasting blood glucose in db/db mice; format: in vivo; conditions: intravenous; for blood glucose at 4 and 8 hours post treatment: food access after 4 hours
Protocol: Synthetic GLP-1 peptide and recombinant GLP-1 Surrobody fusions were evaluated for their ability to lower plasma glucose in db/db mice. To reduce the effects of in vivo DPPIV proteolysis during the time course of the study GLP-1 both synthetic and recombinant GLP-1 functionally null Surrobodies used a GLP-1 variant containing a serine substitution for alanine at position 8 that reduces DPPIV inactivation. 8 db/db mice were used per group: Control SgG (3 mg/kg) (functionally null SgG that lacks the GLP-1 conjugate); GLP-1 peptide (0.8 mg/kg); GLP-1 SgG (1 mg/kg); and GLP-1 (3 mg/kg). Essentially db/db mice were matched by weight and relative blood glucose levels. Next, the subjects were injected intravenously with test article and isolated with access to water, but not food. Glucose levels were monitored by handheld glucometer after 1 hour and 4 hours. After 4 hours the mice were allowed free access to both food and water. An additional reading was made at 8 hours following drug administration.

[1] = target: Dipeptidyl protease IV (DPP-IV) (Homo sapiens, UniProt P27487); conditions: cited from earlier work
Chain of Dipeptidyl protease IV (DPP-IV) (P27487 whole entry): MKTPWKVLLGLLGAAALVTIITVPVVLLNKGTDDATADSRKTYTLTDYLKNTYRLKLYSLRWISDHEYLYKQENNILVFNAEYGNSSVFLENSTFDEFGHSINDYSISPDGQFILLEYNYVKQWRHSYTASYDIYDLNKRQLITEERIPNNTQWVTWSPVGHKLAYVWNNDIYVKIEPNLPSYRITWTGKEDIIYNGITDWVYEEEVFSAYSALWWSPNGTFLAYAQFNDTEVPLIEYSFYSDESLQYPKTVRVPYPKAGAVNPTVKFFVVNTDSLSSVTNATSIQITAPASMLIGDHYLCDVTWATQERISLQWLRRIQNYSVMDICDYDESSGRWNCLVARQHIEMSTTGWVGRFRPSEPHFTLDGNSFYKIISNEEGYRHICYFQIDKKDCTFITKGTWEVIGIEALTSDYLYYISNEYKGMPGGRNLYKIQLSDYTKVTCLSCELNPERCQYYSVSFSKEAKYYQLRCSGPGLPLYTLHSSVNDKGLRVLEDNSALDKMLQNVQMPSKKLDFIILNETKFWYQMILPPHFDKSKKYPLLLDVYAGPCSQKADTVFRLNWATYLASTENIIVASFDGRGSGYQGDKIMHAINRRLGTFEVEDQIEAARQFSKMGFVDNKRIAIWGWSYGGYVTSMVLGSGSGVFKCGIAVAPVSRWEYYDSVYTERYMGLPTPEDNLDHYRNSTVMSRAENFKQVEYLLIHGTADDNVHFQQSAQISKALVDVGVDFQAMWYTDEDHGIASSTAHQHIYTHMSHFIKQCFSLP

Sequence	blood glucose reduction overall, through 8 hours (db/db mice; 1 and 3 mg/kg, FIG. 17)	time to inactivation by DPP-IV [1]	blood glucose after 1 hour (db/db mice; fasted, GLP-1 SgG 1 and 3 mg/kg, GLP-1 peptide 0.8 mg/kg)	blood glucose at 4 and 8 hours post treatment (db/db mice; GLP-1 SgG 1 and 3 mg/kg, GLP-1 peptide 0.8 mg/kg)	blood glucose at 4 and 8 hours post treatment (db/db mice; GLP-1 SgG 1 and 3 mg/kg, GLP-1 peptide 0.8 mg/kg, listed as GLP-1 peptide control)	resistance to proteolytic inactivation by DPP-IV [1]
HAEGTFTSDVSSYLEGQAAKEFIAWLVKGRG [GLP-1]	acutely reduces blood glucose through 8 hours	≤ 2 min	–	–	–	–
HSEGTFTSDVSSYLEGQAAKEFIAWLVKGRG [GLP-1 peptide, GLP-1 receptor agonist with serine for alanine substitution at position 8]	–	–	considerable blood glucose reduction	started to approach levels of control Surrobody	unable to maintain the same degree of blood glucose levels	markedly resistant
